Measurements as given in patent US20140011755A1, “Cardiac Glycosides for Treating Autoimmune Disease” (Department of Veterans Affairs, priority 2010, published 2014).
“Also recorded” adds a separate entry of the source.

Key:
[1] = tested on: TNF-mediated NFκB activity in HeLa cells; assay: NFκB luciferase reporter assay in TNF-stimulated HeLa cells; type: cell-based; details: pre-treatment 6 hours with 0-500 nM, 50 ng/mL TNF
Experimental: FIG. 8. […] Values represent mean light units produced. Error bars represent SEM, and statistical significance was determined by unpaired T-test. Single and double asterisks represent P-values of 0.01 or 0.001, respectively. […] Samples were harvested at designated time points and were fractionated into nuclear and cytoplasmic lysates (Pierce). Lysates were quantified using BCA (Pierce), and were equally loaded according to total protein. Membranes were probed for levels of nuclear phospho-p65 (ReIA), phospho-ReIB, and histone (histone served as loading control and fractionation method control) and cytoplasmic degradation of IκBα (beta-tubulin served as loading control and fractionation method control).
HeLa cells were co-transfected with the reporter pNFκB-luc and control vector pTAL (Renilla) for 18 h prior to incubation with 0-500 nM cardiac glycoside for 6 h. Cells are stimulated with 50 ng/mL TNF. […] FIG. 8 B).

[2] = tested on: regulatory T cells; assay: FACS of regulatory T cells in splenocytes of treated CIA mice; type: in vivo, DBA1/J mice; details: 0.3 mg/kg treated CIA mice, 4 mice per group
Experimental: (§1) FIG. 25. […] (A) Representative data from mixed lymphocyte studies. […] B cells were washed, replated in complete RPMI supplemented with BAFF (1 ng/mL), anti-CD3 antibody (4 μg/mL) and were added to 5×10^5 naïve CD4^+ T cells purified by MACS. Cells were incubated for 72 hr prior to harvest. IL-6, IL-10, TGFβ and IL-17 cytokine levels were measured by ELISA (R&D Systems, Peprotech, and eBiosciences). Data represent the average absorbance (A450) of triplicates and error bars represent the SEM. […] Cells were fixed in 4% paraformaldehyde for 15 minutes, washed twice with PBS and blocked with FACS buffer. Cells were stained for regulatory T cells using anti-TCRβ, anti-CD4, anti-CD25 and anti-FoxP3 antibodies (Cell Signaling Technologies, R&D Systems, AbCam). FACS was performed on the FACS Aria (Becton-Dickenson). Data represent the average population in 500,000 cells from 4 mice per treatment group. Error bars represent the SEM.
(§2) It is known that B cells can regulate T cell differentiation and in many states of autoimmune disease, an imbalance of Th1, Th2, and Th17 T cell populations exist. […] We performed studies to determine the regulatory effector function of B cells pre-treated with cardiac glycoside on T cell differentiation. […]

[3] = tested on: MRL-Ipr splenic B cells; assay: ANA production by MRL-Ipr splenic B cells in vitro; type: cell-based, mice; details: 2×10^5 vehicle-treated MRL-Ipr splenic B cells, 33 nM
[4] = oral; cited from earlier work
[5] = tested on: phospho-STAT3 (Y705); assay: STAT3 phosphorylation in cells from CIA mice (flow cytometry, Western blot); type: cell-based; details: splenic B cells from CIA mice, 33 nM, 30 minutes / 0-60 minutes
Experimental: FIG. 15. […] Flow cytometry was performed using the FACSAria II (Bectin Dickenson). […] Lysates were quantified for total protein using the Nanodrop, and verification was performed by BCA (Pierce). Lysates were loaded onto SDS-PAGE and transferred to PVDF (Millipore). Membranes were blotted for phospho-STAT3 (Y705) and beta-actin.
Cardiac glycosides were administered at endogenous levels (sub- and nano Molar) or therapeutic levels (nano Molar) to modulate transcription factor activity and gene expression. Alteration of STAT1 activity has been observed in Alzheimer's disease and susceptibility to lethal intracellular pathogenic diseases (Kitamura et al, 1997; Chapgier et al, 2009). Aberrant STAT2 levels have been linked to inflammatory disease such as Crohn's disease (CD), ulcerative colitis (UC) and inflammatory bowel disease (IBD), and cancers such as colorectal and skin cancers (Gamero et al, 2010). STAT3 signaling is a critical component of Th17-dependent autoimmune processes. […] Mice with targeted deletion of Stat3 in T cells are resistant to experimental autoimmune encephalomyelitis, which is a multiple sclerosis (MS) model. […] STAT phosphorylation can be assessed by phospho-flow cytometric analysis, Western immunoblot and ELISA of circulating PBMCs or of biopsied tissues.

[6] = tested on: naïve CD4+ T cells, regulatory T cells; assay: Mixed lymphocyte study, pre-treated CIA B cells with naïve CD4+ T cells; type: cell-based, mice; details: B cells treated 33 nM for 1 hr, co-culture 72 hr
Experimental: as §1, §2

[7] = tested on: B cells from CIA mice; assay: RT-PCR cytokine gene expression in cells purified from CIA mice; type: cell-based; details: 33 nM and 100 nM, 45 minutes
Experimental: IL-10 (FIG. 20 A) and TGFβ1 (FIG. 20 B) levels were quantified. Samples were normalized against Ywhaz1 and Hprt1 housekeeping genes. […] Samples were examined in triplicates and the error bars represent the SEM. […] After 30 minutes, cells were washed, lysed and mRNA was isolated with Trizol (Invitrogen). RT-PCR was performed on mRNA and samples were normalized against housekeeping genes, Ywhaz1 and Hprt1. Data represent the average fold change in IL-10 gene expression compared to media alone. Error bars represent SEM of triplicates.
RT-PCR was performed and TGFβ1, IL-10 and IL-6 mRNA levels were quantified. Sample cDNA levels were normalized against housekeeping genes Ywhaz1 and Hprt1. Data represent the average fold change in IL-10 gene expression compared to media alone. Error bars represent SEM of triplicates.
RT-PCR was performed and TGFβ1 and IL-10 levels were quantified and samples were normalized against Ywhaz1 and Hprt1. Data represent the average fold gene induction of triplicates and error bars represent SEM.

[8] = tested on: collagen-induced arthritis (CIA); type: in vivo, DBA1/J mice
[9] = tested on: naïve CD4+ T cells, Th17 differentiation; assay: Th17 T cell differentiation in co-culture with pre-treated CIA B cells; type: cell-based, mice; details: B cells treated 33 nM for 30 minutes, washed, co-culture 72 hr in Th17 differentiation media
Experimental: FIG. 24. […] At endpoint, IL-17 cytokine levels were quantified by ELISA (R&D Systems). (B) IL-10 cytokine production was also assessed in each sample by ELISA (eBiosciences). Data represent the average of triplicates and error bars represent the SEM. Statistical significance was determined by the students t-test.
It is known that B cells can regulate T cell differentiation and in many states of autoimmune disease, an imbalance of Th1, Th2, and Th17 T cell populations exist. […] We performed studies to determine the regulatory effector function of B cells pre-treated with cardiac glycoside on T cell differentiation. B cells blocked naïve CD4^+ T cell differentiation into Th17 cells when cardiac glycoside was administered to B cells 30 minutes prior to co-culture with T cells (FIG. 24 A). Additionally, the pre-treatment of B cells with cardiac glycoside inhibited Th17 differentiation in a STAT3-dependent manner (FIG. 25A). […] Cardiac glycosides can be administered to patients to induce IL-10 expressing B cells and to modulate T cell differentiation and increase numbers of Tregs which reduce autoimmune disease progression.

[10] = daily i.p. from Mean Visual Score of 2, digitoxin 0.3 mg/kg, proscillaridin […], Mann-Whitney

SMILES: C[C@H]1O[C@@H](O[C@H]2[C@@H](O)C[C@H](O[C@H]3[C@@H](O)C[C@H](O[C@H]4CC[C@@]5(C)[C@H](CC[C@@H]6[C@@H]5CC[C@]5(C)[C@@H](C7=CC(=O)OC7)CC[C@]65O)C4)O[C@@H]3C)O[C@@H]2C)C[C@H](O)[C@@H]1O [Digitoxin, digitoxin]
- TNF-mediated NFκB activation (luciferase light units) [1]: reduced TNF-mediated NFκB activation in a dose-dependent fashion
- induction of regulatory T cells in vivo [2]: induce regulatory T cells
- ANA production in vitro at 72 hours [3]: blockade of autoantibody production
- oral bioavailability [4]: > 90%
- STAT3 phosphorylation (Y705) [5]: stimulate STAT3 phosphorylation
- induction of regulatory T cells in vitro [6]: induce regulatory T cells
- IL-6 mRNA expression in B cells [7]: inhibit IL-6 expression
- IL-10 mRNA expression in B cells [7]: induce
- TGFβ1 mRNA expression in B cells [7]: induce
- disease and inflammation (clinical score, paw thickness), dosing every three days i.p. ([8]; 0.9 mg/kg digitoxin or 0.6 mg/kg ouabain, i.p., days −3, 0, 3, 6, 9, 12 after boost): significantly less disease and inflammation
- onset of collagen arthritis, dosing every three days sublingual ([8]; 0.9 mg/kg digitoxin or 0.6 mg/kg ouabain, sublingual, days −3, 0, 3, 6, 9, 12 after boost): significantly inhibited the onset of collagen arthritis; also recorded: effective in preventing
- Mean Paw Thickness, treatment of established arthritis [8, 10]: statistically significant reductions
- Mean Visual Score, treatment of established arthritis [8, 10]: statistically significant reductions
- development of CIA (Mean Visual Arthritis Score, Mean Paw Thickness), prevention study ([8]; daily i.p. from the day prior to induction, digitoxin 0.3 mg/kg, ouabain 0.03 mg/kg, proscillaridin […]): prevented the development of CIA
- average clinical arthritis scores compared to vehicle, prevention study ([8]; mouse, in vivo): significantly reduced
- prevention and treatment of collagen-induced arthritis (CIA) ([8]; murine model for rheumatoid arthritis, summary statement): potently prevent and treat
- Th17 cell differentiation (IL-17 by ELISA) [9]: down-regulates Th17 cell differentiation
